From patent US9732063B2, “Kinase inhibitors” (RESPIVERT LIMITED, priority 2012, dated 2017)

Key:
[1] = target: Syk (Homo sapiens (Human), UniProt P43405); experiment: Syk enzyme inhibition (Z-LYTE FRET); type: biochemical
Protocol: (§1) The enzyme inhibitory activities of compounds disclosed herein are determined by FRET using synthetic peptides labelled with both donor and acceptor fluorophores (Z-LYTE, Invitrogen Ltd., Paisley, UK).
(§2) The relevant enzyme (3000 ng/mL or 2000 ng/mL respectively, 2.5 μL) is incubated with the test compound (either 4 μg/mL, 0.4 μg/mL, 0.04 μg/mL, or 0.004 μg/mL, 2.5 μL each) for 2 hr at RT. The FRET peptides (8 μM, 2.5 μL), and appropriate ATP solutions (2.5 μL, 800 μM for c-Src, and 60 μM ATP for Syk) are then added to the enzymes/compound mixtures and incubated for 1 hr. Development reagent (protease, 5 μL) is added for 1 hr prior to detection in a fluorescence microplate reader (Varioskan® Flash, ThermoFisher Scientific).
(§3) In all cases, the site-specific protease cleaves non-phosphorylated peptide only and eliminates the FRET signal. Phosphorylation levels of each reaction are calculated using the ratio of coumarin emission (donor) over fluorescein emission (acceptor), for which high ratios indicate high phosphorylation and low ratios indicate low phosphorylation levels.

[2] = system: PBMCs; experiment: LPS-induced TNFα/IL-8 release in PBMC cells; type: cell-based; conditions: Homo sapiens, read-out: IC50 Values for Inhibition of Cytokine Release PBMCs IL-8
Protocol: Peripheral blood mononuclear cells (PBMCs) from healthy subjects are separated from whole blood using a density gradient (Lymphoprep, Axis-Shield Healthcare). The PBMCs are seeded in 96 well plates and treated with compounds at the desired concentration for 2 hours before addition of 1 ng/mL LPS (Escherichia Coli O111:B4 from Sigma Aldrich) for 24 hours under normal tissue culture conditions (37° C., 5% CO2). The supernatant is harvested for determination of IL-8 and TN Fa concentrations by sandwich ELISA (Duo-set, R&D systems) and read on the fluorescence microplate reader (Varioskan® Flash, ThermoFisher Scientific).

[3] = target: c-Src (Homo sapiens (Human), UniProt P12931); experiment: c-Src enzyme inhibition (Z-LYTE FRET); type: biochemical
Sequence of c-Src (P12931 whole entry, looked up): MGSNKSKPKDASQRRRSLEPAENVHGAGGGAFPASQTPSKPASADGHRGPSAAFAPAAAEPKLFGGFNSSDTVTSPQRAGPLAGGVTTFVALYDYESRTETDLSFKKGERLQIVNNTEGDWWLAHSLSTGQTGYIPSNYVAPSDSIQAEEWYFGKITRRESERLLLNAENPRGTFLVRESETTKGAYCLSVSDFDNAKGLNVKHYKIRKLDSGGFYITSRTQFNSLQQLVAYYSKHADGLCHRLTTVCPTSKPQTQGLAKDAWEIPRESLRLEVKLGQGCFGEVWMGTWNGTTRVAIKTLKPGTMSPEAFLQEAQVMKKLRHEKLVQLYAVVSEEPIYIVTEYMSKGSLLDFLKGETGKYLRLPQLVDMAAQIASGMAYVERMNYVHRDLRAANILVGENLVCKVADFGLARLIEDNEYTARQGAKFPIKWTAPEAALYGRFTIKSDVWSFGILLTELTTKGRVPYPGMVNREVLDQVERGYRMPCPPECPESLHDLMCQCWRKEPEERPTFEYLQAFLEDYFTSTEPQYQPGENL
Protocol: as §1, §2, §3

[4] = target: GSK3α (Homo sapiens (Human), UniProt P49840); experiment: GSK 3α enzyme inhibition (Z-LYTE FRET, Method 2); type: biochemical
Sequence of GSK3α (P49840 whole entry): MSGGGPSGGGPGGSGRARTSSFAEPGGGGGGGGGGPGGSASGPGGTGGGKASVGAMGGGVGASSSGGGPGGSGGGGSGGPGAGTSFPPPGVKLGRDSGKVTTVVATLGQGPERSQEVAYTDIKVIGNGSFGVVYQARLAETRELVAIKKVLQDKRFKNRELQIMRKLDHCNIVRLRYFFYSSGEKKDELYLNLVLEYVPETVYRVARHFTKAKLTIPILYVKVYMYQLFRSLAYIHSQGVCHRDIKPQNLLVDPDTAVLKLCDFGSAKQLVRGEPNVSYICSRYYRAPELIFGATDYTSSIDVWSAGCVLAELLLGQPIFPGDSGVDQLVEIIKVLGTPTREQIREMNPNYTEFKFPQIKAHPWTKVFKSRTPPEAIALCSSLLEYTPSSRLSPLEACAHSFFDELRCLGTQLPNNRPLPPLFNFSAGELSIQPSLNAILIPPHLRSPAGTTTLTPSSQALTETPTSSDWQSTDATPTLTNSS
Protocol: as §1
The inhibitory activities of compounds of the invention against the GSK 3α enzyme isoform (Invitrogen), are evaluated by determining the level of activation/phosphorylation of the target peptide. The GSK3-α protein (500 ng/mL, 2.5 μL) is mixed with the test compound (2.5 μL at either 4 μg/mL, 0.4 μg/mL, 0.04 μg/mL, or 0.004 μg/mL) for 2 hr at RT. The FRET peptide (8 μM, 2.5 μL), which is a phosphorylation target for GSK3α, and ATP (40 μM, 2.5 μL) are then added to the enzyme/compound mixture and the resulting mixture incubated for 1 hr. Development reagent (protease, 5 μL) is added for 1 hr prior to detection in a fluorescence microplate reader (Varioskan® Flash, ThermoFisher Scientific).
as §3

[5] = target: p38 MAPKα (Homo sapiens (Human), UniProt Q16539); experiment: p38 MAPKα enzyme inhibition (Z-LYTE FRET, Method 2); type: biochemical
Sequence of p38 MAPKα (Q16539 whole entry): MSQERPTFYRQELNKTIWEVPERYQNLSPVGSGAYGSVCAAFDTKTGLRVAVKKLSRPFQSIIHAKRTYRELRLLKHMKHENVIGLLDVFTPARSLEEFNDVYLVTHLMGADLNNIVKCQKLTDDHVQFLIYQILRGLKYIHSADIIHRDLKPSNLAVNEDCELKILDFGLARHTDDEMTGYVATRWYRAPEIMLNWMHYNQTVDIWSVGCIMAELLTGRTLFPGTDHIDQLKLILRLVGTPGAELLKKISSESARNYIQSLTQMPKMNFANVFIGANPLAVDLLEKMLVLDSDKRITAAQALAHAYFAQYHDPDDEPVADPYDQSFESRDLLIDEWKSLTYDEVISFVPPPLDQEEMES
Protocol: as §1
The inhibitory activities of test compounds against the p38 MAPKα isoform (MAPK14: Invitrogen), are evaluated indirectly by determining the level of activation/phosphorylation of the down-stream molecule, MAPKAP-K2. The p38 MAPKα protein (80 ng/mL, 2.5 μL) is mixed with the test compound (2.5 μL of either 4 μg/mL, 0.4 μg/mL, 0.04 μg/mL or 0.004 μg/mL) for 2 hr at RT. […] The mixture is incubated for 1 hr at RT. Development reagent (protease, 5 μL) is added for 1 hr prior to detection in a fluorescence microplate reader (Varioskan® Flash, ThermoFisher Scientific).
as §3

[6] = system: PBMCs; experiment: IL-2 and IFN gamma release in CD3/CD28 stimulated PBMC cells; type: cell-based; conditions: Homo sapiens
Protocol: PBMCs from healthy subjects are separated from whole blood using a density gradient (Lymphoprep, Axis-Shield Healthcare). Cells are added to a 96 well plate pre-coated with a mixture of CD3/CD38 monoclonal antibodies (0.3 μg/mL eBioscience and 3 μg/mL BD Pharmingen respectively). Compound at the desired concentration is then added to the wells and the plate left for 3 days under normal tissue culture conditions. Supernatants are harvested and IL-2 and IFN gamma release determined by Sandwich ELISA (Duo-set, R&D System). The IC50 is determined from the dose response curve.

[7] = read-out: IC50 Values for Inhibition of Cytokine Release PBMCs IL-2
[8] = read-out: IC50 Values for Inhibition of Cytokine Release PBMCs IFNγ

SMILES | IC50 [1] [nM] | IC50 [2] [nM] | IC50 [3] [nM] | IC50 [4] [nM] | IC50 [5] [nM] | IC50 [6, 7] [nM] | IC50 [6, 8] [nM]
C#Cc1cccc(Nc2nccc(Oc3ccc(NC(=O)Nc4cc(C(C)C)nn4-c4ccc(C)cc4)c4ccccc34)n2)c1 [Example 10, 1-(4-((2-((3-Ethynylphenyl)amino)pyrimidin-4-yl)oxy)naphthalen-1-yl)-3-(3-isopropyl-1-(p-tolyl)-1H-pyrazol-5-yl)urea] | 807 | 7.9 | 137 | – | – | – | –
C#Cc1cc(Nc2nccc(Oc3ccc(NC(=O)Nc4cc(C(C)C)nn4-c4ccc(C)cc4)c4ccccc34)n2)cc(OC)c1 [Example 15, 1-(4-((2-((3-Ethynyl-5-methoxyphenyl)amino)pyrimidin-4-yl)oxy)naphthalen-1-yl)-3-(3-isopropyl-1-(p-tolyl)-1H-pyrazol-5-yl)urea] | > 1600 | 6.1 | > 1600 | – | – | – | –
Cc1ccc(-n2nc(C(C)C)cc2NC(=O)Nc2ccc(Oc3ccnc(Nc4cccc(OCCOCCOCCO)c4)n3)c3ccccc23)cc1 [Example 19, 1-(4-((2-((3-(2-(2-(2-Hydroxyethoxy)ethoxy)ethoxy)phenyl)amino)pyrimidin-4-yl)oxy)-naphthalen-1-yl)-3-(3-isopropyl-1-(p-tolyl)-1H-pyrazol-5-yl)urea] | 20 | 1.2 | 5 | 1070 | – | – | –
COCCOCCOCCOc1cc(Nc2nccc(Oc3ccc(NC(=O)Nc4cc(C(C)C)nn4-c4ccc(C)cc4)c(Cl)c3Cl)n2)cc(OC)c1 [Example 35, 1-(2,3-Dichloro-4-((2-((3-methoxy-5-(2-(2-(2-methoxyethoxy)ethoxy)ethoxy)phenyl)-amino)pyrimidin-4-yl)oxy)phenyl)-3-(3-isopropyl-1-(p-tolyl)-1H-pyrazol-5-yl)urea] | – | 2.1 | 15 | > 10000 | 487 | 9.8 | –
COCCOCCOCCOc1cc(Nc2nccc(Oc3ccc(NC(=O)Nc4cc(C(F)(F)C(F)(F)F)nn4-c4ccc(C)cc4)c4ccccc34)n2)cc(OC)c1 [Example 39, 1-(4-((2-((3-Methoxy-5-(2-(2-(2-methoxyethoxyl)ethoxy)ethoxy)phenyl)amino)pyrimidin-4-yl)oxy)naphthalen-1-yl)-3-(3-(perfluoroethyl)-1-(p-tolyl)-1H-pyrazol-5-yl)urea] | – | 5.5 | – | 9540 | 433 | – | –
COCCOCCOCCOc1cc(Nc2nccc(Oc3ccc(NC(=O)Nc4cc(C(C)(C)C(F)(F)F)nn4-c4ccc(C)cc4)c4ccccc34)n2)cc(OC)c1 [Example 40, 1-(4-((2-((3-Methoxy-5-(2-(2-(2-methoxyethoxyl)ethoxy)ethoxy)phenyl)amino)pyrimidin-4-yl)oxy)naphthalen-1-yl)-3-(1-(p-tolyl)-3-(1,1,1-trifluoro-2-methylpropan-2-yl)-1H-pyrazol-5-yl)urea] | – | 7.2 | – | 8170 | – | 175 | 1
COc1cc(Nc2nccc(Oc3ccc(NC(=O)Nc4cc(C(C)(C)C)nn4-c4ccc(C)cc4)c4ccccc34)n2)cc(SCCN2CCOCC2)c1 [Example 41, 1-(3-(tert-Butyl)-1-(p-tolyl)-1H-pyrazol-5-yl)-3-(4-((2-((3-methoxy-5-((2-morpholinoethyl)-thio)phenyl)amino)pyrimidin-4-yl)oxy)naphthalen-1-yl)urea] | – | 4.8 | – | 2820 | 224 | 80.3 | 2.5
COc1cc(Nc2nccc(Oc3ccc(NC(=O)Nc4cc(C(C)(C)C)nn4-c4ccc(C)cc4)c4ccccc34)n2)cc(S(=O)(=O)CCCN2CCOCC2)c1 [Example 43, 1-(3-(tert-Butyl)-1-(p-tolyl)-1H-pyrazol-5-yl)-3-(4-((2-((3-methoxy-5-((3-morpholinopropyl)-sulfonyl)phenyl)amino)pyrimidin-4-yl)oxy)naphthalen-1-yl)urea] | – | 2.9 | – | 531 | – | 78.7 | 2.2
COc1cc(Nc2nccc(Oc3ccc(NC(=O)Nc4cc(C(C)(C)C)nn4-c4ccc(C)cc4)c4ccccc34)n2)cc(SCCCO)c1 [Example 48, 1-(3-(tert-Butyl)-1-(p-tolyl)-1H-pyrazol-5-yl)-3-(4-((2-((3-((3-Hydroxypropyl)thio)-5-methoxyphenyl)amino)pyrimidin-4-yl)oxy)naphthalen-1-yl)urea] | 37 | 3 | – | 2050 | 195 | 49.2 | –
COCCOCCOCCOc1cc(C#N)cc(Nc2nccc(Oc3ccc(NC(=O)Nc4cc(C(C)(C)C)nn4-c4ccc(C)cc4)c4ccccc34)n2)c1 [Example 52, 1-(3-(tert-Butyl)-1-(P-tolyl)-1H-pyrazol-5-yl)-3-(4-((2-((3-cyano-5-(2-(2-(2-methoxyethoxy)-ethoxy)ethoxy)phenyl)amino)pyrimidin-4-yl)oxy)naphthalen-1-yl)urea] | – | 15 | – | > 13000 | – | – | –
C#Cc1cc(Nc2nccc(Oc3ccc(NC(=O)Nc4cc(C(C)(C)C)nn4-c4ccc(C)cc4)c4ccccc34)n2)cc(OCCOCCOCCOC)c1 [Example 54, 1-(3-(tert-Butyl)-1-(p-tolyl)-1H-pyrazol-5-yl)-3-(4-((2-((3-ethynyl-5-(2-(2-(2-methoxyethoxy)ethoxy)ethoxy)phenyl)amino)pyrimidin-4-yl)oxy)naphthalen-1-yl)urea] | – | 4.5 | – | > 10000 | – | – | –
COCCOCCOCCOc1cc(Cl)cc(Nc2nccc(Oc3ccc(NC(=O)Nc4cc(C(C)(C)C)nn4-c4ccc(C)cc4)c4ccccc34)n2)c1 [Example 64, 1-(3-(tert-Butyl)-1-(p-tolyl)-1H-pyrazol-5-yl)-3-(4-((2-((3-chloro-5-(2-(2-(2-methoxyethoxy)-ethoxy)ethoxy)phenyl)amino)pyrimidin-4-yl)oxy)naphthalen-1-yl)urea] | – | 9.5 | – | > 10000 | – | – | –
COc1cc(Nc2nccc(Oc3ccc(NC(=O)Nc4cc(C(C)(C)C)nn4-c4ccc(C)cc4)c(Cl)c3Cl)n2)cc(OCCCN2CCOCC2)c1 [Example 65, 1-(3-(tert-Butyl)-1-(p-tolyl)-1H-pyrazol-5-yl)-3-(2,3-dichloro-4-((2-((3-methoxy-5-(3-morpholinopropoxyl)phenyl)amino)pyrimidin-4-yl)oxy)phenyl)urea] | – | 3.5 | – | > 10000 | – | 37 | 2.8
COCCOCCOCCOc1cc(Nc2nccc(Oc3ccc(NC(=O)Nc4cc(C(C)(C)C)nn4-c4ccc(C)cc4)c4ccccc34)n2)cc(N(C)C)c1 [Example 66, 1-(3-(tert-Butyl)-1-(p-tolyl)-1H-pyrazol-5-yl)-3-(4-((2-((3-(dimethylamino)-5-(2-(2-(2-methoxyethoxy)ethoxy)ethoxy)phenyl)amino)pyrimidin-4-yl)oxy)naphthalen-1-yl)urea] | – | 2.6 | – | 3390 | – | – | –
COCCOCCOCCOc1cc(Nc2nccc(Oc3ccc(NC(=O)Nc4cc(C(C)(C)C)nn4-c4ccc(C)cc4)c4ccccc34)n2)cc(OC)c1Cl [Example 72, 1-(3-(tert-Butyl)-1-(p-tolyl)-1H-pyrazol-5-yl)-3-(4-((2-((4-chloro-3-methoxy-5-(2-(2-(2-methoxyethoxyl)ethoxy)ethoxy)phenyl)amino)pyrimidin-4-yl)oxy)naphthalen-1-yl)urea] | 75 | – | – | > 10000 | 377 | 35.1 | 3.3
